Results on 27 compounds are retold here after ChEMBL document CHEMBL1201862, “PubChem BioAssay data set” (2004).

Experiment [1] addresses T1, Corticotropin-releasing factor receptor 2/Corticotropin-releasing factor-binding protein (Homo sapiens, UniProt P24387+Q13324).
T1 sequence (Q13324 whole entry): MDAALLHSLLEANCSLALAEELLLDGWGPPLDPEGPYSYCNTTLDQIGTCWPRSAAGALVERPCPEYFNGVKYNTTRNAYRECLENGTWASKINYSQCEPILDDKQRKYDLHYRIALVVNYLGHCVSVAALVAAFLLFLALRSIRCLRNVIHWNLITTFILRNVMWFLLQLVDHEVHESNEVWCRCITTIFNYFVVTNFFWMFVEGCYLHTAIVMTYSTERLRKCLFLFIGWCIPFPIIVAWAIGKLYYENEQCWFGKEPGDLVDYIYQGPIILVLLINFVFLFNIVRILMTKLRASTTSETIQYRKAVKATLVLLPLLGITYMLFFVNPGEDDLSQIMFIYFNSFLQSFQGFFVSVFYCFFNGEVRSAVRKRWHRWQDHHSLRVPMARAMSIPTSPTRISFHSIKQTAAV
T1 sequence (P24387 whole entry): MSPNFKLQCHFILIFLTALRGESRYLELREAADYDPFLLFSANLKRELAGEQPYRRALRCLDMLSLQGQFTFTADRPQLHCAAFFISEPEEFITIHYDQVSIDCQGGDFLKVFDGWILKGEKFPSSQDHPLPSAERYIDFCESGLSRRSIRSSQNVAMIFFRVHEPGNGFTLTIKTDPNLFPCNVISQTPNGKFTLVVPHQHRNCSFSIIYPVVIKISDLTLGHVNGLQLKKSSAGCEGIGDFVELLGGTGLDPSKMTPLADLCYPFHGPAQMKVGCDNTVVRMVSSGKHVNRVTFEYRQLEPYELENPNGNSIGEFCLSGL
The experiment is described as follows: activators of CRF receptor 2 with binding protein – uHTS hits, confirmation (AID 602473). The note with it: read-out: EC50_Mean. It counts as functional.

For experiment [2], the target named is T1, Corticotropin-releasing factor receptor 2/Corticotropin-releasing factor-binding protein. The experiment is described as follows: Dose Response confirmation of uHTS hits for small molecule antagonists of the CRF-binding protein and CRF-R2 receptor complex. It is filed as functional. The note with it: read-out: IC50_Mean.
The target in experiment [3] is Large T antigen (Simian virus 40, UniProt P03070). It is filed as functional, Betapolyomavirus macacae.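 Note: Confirmatory-stage PubChem screen for compounds that inhibit SV40 T antigen.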
For experiment [4], the target named is T2, Rac GTPase-activating protein 1 (Homo sapiens, UniProt Q9H0H5).
T2 sequence (Q9H0H5 whole entry): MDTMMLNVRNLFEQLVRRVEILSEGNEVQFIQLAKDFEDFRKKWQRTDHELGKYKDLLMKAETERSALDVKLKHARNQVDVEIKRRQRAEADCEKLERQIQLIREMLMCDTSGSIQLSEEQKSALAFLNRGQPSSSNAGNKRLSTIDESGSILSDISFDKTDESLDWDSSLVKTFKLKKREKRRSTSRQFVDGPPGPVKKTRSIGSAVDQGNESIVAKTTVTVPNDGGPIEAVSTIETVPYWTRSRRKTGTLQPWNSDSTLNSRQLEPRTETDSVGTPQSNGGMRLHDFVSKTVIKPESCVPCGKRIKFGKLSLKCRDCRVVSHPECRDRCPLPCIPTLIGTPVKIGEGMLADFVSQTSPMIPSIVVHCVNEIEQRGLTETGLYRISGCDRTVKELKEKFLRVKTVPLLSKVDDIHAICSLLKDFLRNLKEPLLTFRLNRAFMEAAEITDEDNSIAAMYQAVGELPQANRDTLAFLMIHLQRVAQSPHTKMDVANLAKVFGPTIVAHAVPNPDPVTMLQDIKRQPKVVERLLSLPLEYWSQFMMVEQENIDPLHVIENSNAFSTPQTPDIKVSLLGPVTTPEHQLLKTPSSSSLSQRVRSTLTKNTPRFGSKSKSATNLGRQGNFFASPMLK
Description: MgcRacGAP GTPase-activating activity inhibitors, confirmation, biochemical, ADP Hunter fluorescence, primary and confirmatory (AID 624330). It is filed as functional.

In experiment [5] the target is T3, Calpain-2 catalytic subunit (Sus scrofa, UniProt P43367).
T3 sequence (P43367 whole entry): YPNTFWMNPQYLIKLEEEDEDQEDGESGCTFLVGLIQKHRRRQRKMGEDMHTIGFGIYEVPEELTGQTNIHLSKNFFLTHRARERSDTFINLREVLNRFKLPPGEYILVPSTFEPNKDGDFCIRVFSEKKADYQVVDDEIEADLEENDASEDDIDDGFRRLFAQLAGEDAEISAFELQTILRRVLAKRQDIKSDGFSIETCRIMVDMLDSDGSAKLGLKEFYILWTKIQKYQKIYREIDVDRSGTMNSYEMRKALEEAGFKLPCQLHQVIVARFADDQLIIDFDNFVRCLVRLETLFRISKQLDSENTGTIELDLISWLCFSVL
Description: pig calpain II inhibitor potency, dose response, biochemical, fluorogenic peptide substrate (AID 1420). It is filed as functional.

Experiment [6] can be described thus: Luminescence Cell-Based Dose Response HTS to Identify Activators of Luciferase Translation or Activity in H4 […] Cells. [Related pubchem assays: 1829 (Project Summary), 1814 (Primary HTS)]. It counts as functional.
Experiment [7] concerns the target T4, Fatty acid synthase (Homo sapiens, UniProt P49327). The experiment is described as follows: FAS thioesterase domain inhibitors, dose response, biochemical, kinetic fluorescence intensity (AID 624326).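 Note: rate of fluorescence rise from hydrolysis of a fluorogenic O-methyl fluorescein ester substrate.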 It counts as functional.
The target in experiment [8] is T4, Fatty acid synthase. The experiment is described as follows: FAS thioesterase domain inhibitors, dose response, biochemical, endpoint fluorescence intensity, uHTS hits (AID 624327).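 Note: fluorescence from hydrolysis of an O-methyl fluorescein acyl ester substrate by the enzyme.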 It counts as functional.

Molecules are shown by their SMILES. Active and inactive are the calls of the source.

T4 sequence (P49327 whole entry, the tested form may be a part): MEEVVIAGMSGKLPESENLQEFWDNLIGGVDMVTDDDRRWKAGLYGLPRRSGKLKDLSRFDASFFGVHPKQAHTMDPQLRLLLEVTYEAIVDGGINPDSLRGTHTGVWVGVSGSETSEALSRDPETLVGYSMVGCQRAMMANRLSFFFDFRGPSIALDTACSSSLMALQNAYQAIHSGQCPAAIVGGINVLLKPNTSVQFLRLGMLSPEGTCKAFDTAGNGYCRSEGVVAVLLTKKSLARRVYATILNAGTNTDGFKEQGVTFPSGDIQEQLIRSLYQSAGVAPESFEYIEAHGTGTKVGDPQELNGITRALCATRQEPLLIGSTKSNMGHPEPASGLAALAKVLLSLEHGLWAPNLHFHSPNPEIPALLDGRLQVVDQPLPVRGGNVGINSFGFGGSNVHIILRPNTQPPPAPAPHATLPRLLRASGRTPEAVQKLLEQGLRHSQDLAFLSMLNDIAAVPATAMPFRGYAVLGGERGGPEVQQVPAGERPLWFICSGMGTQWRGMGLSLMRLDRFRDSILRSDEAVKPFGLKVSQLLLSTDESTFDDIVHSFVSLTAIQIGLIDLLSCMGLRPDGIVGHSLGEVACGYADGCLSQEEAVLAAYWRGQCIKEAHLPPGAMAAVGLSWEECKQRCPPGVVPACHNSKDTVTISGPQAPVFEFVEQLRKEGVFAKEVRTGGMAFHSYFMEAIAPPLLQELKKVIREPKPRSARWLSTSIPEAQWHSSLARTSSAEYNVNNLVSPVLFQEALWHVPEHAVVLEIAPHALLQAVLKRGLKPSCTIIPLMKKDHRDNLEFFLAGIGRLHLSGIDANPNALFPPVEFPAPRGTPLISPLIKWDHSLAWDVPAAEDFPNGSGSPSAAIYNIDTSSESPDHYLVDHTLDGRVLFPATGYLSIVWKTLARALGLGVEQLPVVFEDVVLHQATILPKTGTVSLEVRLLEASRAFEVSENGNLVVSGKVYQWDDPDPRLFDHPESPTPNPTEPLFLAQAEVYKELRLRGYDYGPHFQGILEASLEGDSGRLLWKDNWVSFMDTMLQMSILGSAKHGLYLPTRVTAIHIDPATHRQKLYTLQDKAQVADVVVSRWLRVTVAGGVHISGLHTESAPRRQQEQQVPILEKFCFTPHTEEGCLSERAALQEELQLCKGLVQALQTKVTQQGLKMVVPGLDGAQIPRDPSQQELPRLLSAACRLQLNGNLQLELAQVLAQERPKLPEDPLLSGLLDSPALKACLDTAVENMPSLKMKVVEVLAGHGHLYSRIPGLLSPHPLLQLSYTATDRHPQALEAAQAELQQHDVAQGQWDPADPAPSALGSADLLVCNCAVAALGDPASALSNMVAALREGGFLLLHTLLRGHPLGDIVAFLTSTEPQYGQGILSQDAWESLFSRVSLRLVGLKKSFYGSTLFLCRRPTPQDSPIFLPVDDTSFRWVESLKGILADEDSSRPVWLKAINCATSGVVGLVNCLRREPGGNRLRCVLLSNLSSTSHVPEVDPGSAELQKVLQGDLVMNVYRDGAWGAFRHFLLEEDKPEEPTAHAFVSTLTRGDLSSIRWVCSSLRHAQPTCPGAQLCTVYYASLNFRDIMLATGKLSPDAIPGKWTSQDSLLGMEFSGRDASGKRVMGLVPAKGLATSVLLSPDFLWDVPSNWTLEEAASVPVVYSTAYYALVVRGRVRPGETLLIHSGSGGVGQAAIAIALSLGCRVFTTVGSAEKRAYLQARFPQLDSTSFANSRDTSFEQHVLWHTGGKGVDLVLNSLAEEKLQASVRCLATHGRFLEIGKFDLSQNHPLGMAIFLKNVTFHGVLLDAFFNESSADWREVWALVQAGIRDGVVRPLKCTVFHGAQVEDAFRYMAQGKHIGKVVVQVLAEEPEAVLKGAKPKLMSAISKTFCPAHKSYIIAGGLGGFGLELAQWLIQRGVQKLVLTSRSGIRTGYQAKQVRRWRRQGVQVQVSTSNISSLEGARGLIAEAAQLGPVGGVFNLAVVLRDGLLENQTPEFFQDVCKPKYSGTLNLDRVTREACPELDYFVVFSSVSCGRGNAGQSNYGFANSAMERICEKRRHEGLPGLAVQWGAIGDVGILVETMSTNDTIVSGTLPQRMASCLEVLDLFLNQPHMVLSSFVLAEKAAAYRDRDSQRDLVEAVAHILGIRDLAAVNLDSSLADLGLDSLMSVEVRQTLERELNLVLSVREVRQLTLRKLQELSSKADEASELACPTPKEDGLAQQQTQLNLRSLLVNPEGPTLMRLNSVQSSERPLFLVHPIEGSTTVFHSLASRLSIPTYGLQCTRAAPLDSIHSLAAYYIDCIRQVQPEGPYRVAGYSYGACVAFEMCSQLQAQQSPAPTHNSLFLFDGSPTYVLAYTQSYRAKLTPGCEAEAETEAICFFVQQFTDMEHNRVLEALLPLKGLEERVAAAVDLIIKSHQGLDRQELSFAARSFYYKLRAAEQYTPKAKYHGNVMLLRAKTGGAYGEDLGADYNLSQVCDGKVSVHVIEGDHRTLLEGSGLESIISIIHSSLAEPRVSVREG
Sequence of Large T antigen (P03070 whole entry): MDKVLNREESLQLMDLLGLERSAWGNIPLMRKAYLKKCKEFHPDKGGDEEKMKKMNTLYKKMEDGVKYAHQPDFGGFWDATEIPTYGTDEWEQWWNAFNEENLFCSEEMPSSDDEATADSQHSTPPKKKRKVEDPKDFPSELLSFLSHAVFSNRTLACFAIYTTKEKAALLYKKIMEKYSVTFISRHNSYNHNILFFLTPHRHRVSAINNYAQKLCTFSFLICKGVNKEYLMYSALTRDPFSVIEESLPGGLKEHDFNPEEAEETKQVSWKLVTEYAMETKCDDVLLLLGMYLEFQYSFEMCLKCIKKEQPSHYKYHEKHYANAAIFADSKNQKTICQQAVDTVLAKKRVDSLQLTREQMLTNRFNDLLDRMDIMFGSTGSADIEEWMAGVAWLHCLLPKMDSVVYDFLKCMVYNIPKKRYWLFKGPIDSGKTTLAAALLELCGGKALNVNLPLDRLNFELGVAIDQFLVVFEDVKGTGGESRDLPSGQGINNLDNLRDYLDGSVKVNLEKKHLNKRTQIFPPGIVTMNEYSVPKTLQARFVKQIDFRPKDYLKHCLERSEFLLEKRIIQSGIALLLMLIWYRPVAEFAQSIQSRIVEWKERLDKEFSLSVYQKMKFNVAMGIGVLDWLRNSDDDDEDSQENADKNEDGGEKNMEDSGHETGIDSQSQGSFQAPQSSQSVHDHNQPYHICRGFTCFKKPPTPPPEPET

As for `COCCNC(=S)N1CCc2cc(OC)c(OC)cc2C1COc1ccc(C(C)C)cc1` (stereo not drawn), the EC50 in experiment [1] is > 53 µM (inactive). Besides, the IC50 in experiment [2] is > 47.1 µM (inactive).

As for `NC1=NC(=O)S/C1=C\c1ccc(O)cc1`, the results for the IC50 in experiment [3], in experiment [4] and in experiment [2] were 4.59 µM (active), 15.7 µM (active) and > 47.1 µM (inactive), respectively. Further, the EC50 in experiment [1] was > 53 µM (inactive).

With `O=C(c1cc2cc([N+](=O)[O-])ccc2s1)N1CCCCC1`, the IC50 in experiment [5] was 43.1 µM (not active).

Turning to `O=C(CCC1CCCCC1)Nc1ccc(C(=O)c2ccncc2)cc1`, the IC50 in experiment [5] was 7.01 µM (not active).

Take `O=C(COC(=O)c1cccnc1O)NCCc1ccc(Cl)cc1Cl`: in experiment [6], the EC50 was 0.367 µM (active).

Turning to `CCc1ccc(OCc2nnc(S)n2Cc2ccccc2)cc1`, the IC50 in experiment [5] was 4.01 µM (not active).

In the case of `O=C(Cn1cc([N+](=O)[O-])ccc1=O)NCc1ccc(Cl)cc1Cl`, the IC50 was 20.4 µM (inactive) in experiment [7] and 15.8 µM (active) in experiment [8].

With `CNC(=S)N/N=C/C1=CCC2CC1C2(C)C` (stereo not drawn), in experiment [5], the IC50 is listed as > 50 µM (not active).

With `O=c1cc(-c2ccccc2)ss1`, in experiment [1], the EC50 is > 53 µM (inactive). In addition, in experiment [2], the IC50 was > 47.1 µM (inactive).

As to `COc1ccc(CN(C)Cc2nc3scc(-c4ccccc4)c3c(=O)[nH]2)cc1OC`, the EC50 in experiment [1] was > 53 µM (inactive). Further, the IC50 in experiment [2] was > 47.1 µM (inactive).

As for `Fc1ccc(Cn2nnnc2C(c2cccs2)N2CCCCCC2)cc1` (stereo not drawn), the IC50 in experiment [5] is 7.88 µM (not active).

In the case of `COc1ccc(NC(=O)Nc2nnc(C(C)(C)C)s2)cc1`, the EC50 in experiment [1] is > 53 µM (inactive). Also, in experiment [2], the IC50 was > 47.1 µM (inactive).

Take `COc1ccc([N+](=O)[O-])cc1/C=N/NC(=O)/C(=C\c1cccs1)NC(=O)c1ccccc1`: the IC50 was 1.97 µM (active) in experiment [7] and 2.62 µM (active) in experiment [8].

As to `O=C(CSc1ccccn1)C12CC3CC(CC(C3)C1)C2`, the IC50 in experiment [5] is listed as > 50 µM (not active).

As for `O=C(c1ccc(F)cc1Cl)N(Cc1ccco1)C1CCS(=O)(=O)C1` (stereo not drawn), the EC50 in experiment [1] was > 53 µM (inactive). The IC50 in experiment [2] is > 47.1 µM (inactive).

In the case of `O=C(Oc1ccc(Cl)c2cccnc12)C12CC3CC(CC(C3)C1)C2`, in experiment [5], the IC50 is given as 11.9 µM (not active).

Turning to `O=C(CN1C(=O)/C(=C/c2cccc(Br)c2)SC1=S)NC1=NCCS1`, in experiment [5], the IC50 is recorded as > 50 µM (not active).

On to `CCN(CC)C(=O)C1CCCN(c2ccc([N+](=O)[O-])cc2/C=N/NC(=O)c2ccccc2)C1` (stereo not drawn), for which the IC50 in experiment [7] was 0.846 µM (active); in experiment [8] it was 0.645 µM (active).

In the case of `O=C(NC(=S)NCC1CCCO1)C(c1ccccc1)c1ccccc1` (stereo not drawn), the EC50 in experiment [1] was > 53 µM (inactive). In addition, the IC50 in experiment [2] is > 47.1 µM (inactive).

Consider `O=C(NCCc1ccccc1)c1ccc(Cl)nc1`, for which the EC50 in experiment [6] is 0.155 µM (inconclusive).

Consider `COc1ccc(OC)c(NC(=O)COC(=O)CSc2ccc(Cl)cc2)c1`, for which the IC50 in experiment [5] is given as 15.5 µM (not active).

Regarding `Cn1nc(C(=O)OCC(=O)N2CCc3ccccc32)c2ccccc2c1=O`, the IC50 in experiment [5] is reported as > 50 µM (not active).

For `C[C@@H](NC(=O)c1[nH]cnc1C(=O)N[C@@H](CCCCNC(=O)OC(C)(C)C)C(=O)OC(C)(C)C)c1ccccc1`, the IC50 in experiment [5] is 8.84 µM (not active).

With `C/C(=N\Nc1ccccn1)c1ccc(S(=O)(=O)NCc2ccco2)cc1`, the IC50 is 10.3 µM (active) in experiment [7] and 13.7 µM (active) in experiment [8].

`O=C(CCNC(=O)c1ccc([N+](=O)[O-])cc1)NC1CCCCCC1`: the IC50 in experiment [7] was 7.06 µM (active); in experiment [8], 8.77 µM (active).

On to `COc1ccc2cc3cc(C(=O)N4CCCC(C)C4)oc3nc2c1` (stereo not drawn), for which the IC50 in experiment [7] was 5.48 µM (active); in experiment [8] it was 6.22 µM (active).

On to `CCN(CC)c1cc2nonc2c2nonc12`, for which the IC50 in experiment [7] is 19.4 µM (active); in experiment [8], 15.9 µM (active).
